Assay results reported in patent US10183011B2, “Anti-depression compounds” (Board of Regents of the University of Texas System, priority 2009, dated 2019).
Entries after “also recorded” stand apart in the source; their conditions may differ.

Experiments:
[1] = test system: hippocampal neurogenesis in the DG; assay: Comparison of P7C3 compounds and antidepressant drugs: DG BrdU labeling after i.c.v. infusion; type: in vivo, mouse; details: 10 μM i.c.v. for 7 days
Source text: The neuroprotective efficacies of both P7C3 and P7C3-A20 were next compared to currently marketed antidepressant medications, using screening conditions identical to those by which P7C3 was originally discovered. This experiment was based on the antidepressant actions of P7C3 and P7C3-A20 characterized here, and the dependence on hippocampal neurogenesis for behavioral efficacy of some marketed antidepressant medications in mice.
Proneurogenic efficacies in the DG of P7C3 and P7C3A20 were compared to those of vehicle (artificial cerebrospinal fluid) and several marketed antidepressant compounds (Sigma-Aldrich, St. Louis, Mo.) according to established methods. In brief, mice were housed individually in cages without running wheels or any form of environmental enrichment, in order to create an environment predicted to have as low of a baseline level of hippocampal neurogenesis as possible. Compounds (10 μM, i.c.v.) were administered for 7 days via subcutaneously implanted Alzet osmotic minipumps connected to a cannula directed into the left lateral ventricle, with implantation day designated as day 0. Starting on day 1, mice also received daily injections of BrdU (50 mg/kg, i.p.) at 9 am daily, for 6 days. Twenty four hours after the sixth BrdU injection, mice were transcardially perfused as described above.

[2] = test system: neural precursor cells in the subgranular zone of the dentate gyrus; assay: In vivo pro-neurogenic efficacy/neuroprotection assay: intracerebroventricular infusion, BrdU incorporation in the dentate gyrus; design: species or system mouse (C57/Bl6); details: direct administration into the brain via Alzet minipumps for one week, 10 μM unless stated
Experimental: Compounds were evaluated for pro-neurogenic efficacy/neuroprotection in our standard in vivo assay at 10 μM concentration in four 12 week old adult male C57/Bl6 mice.
In an effort to identify compounds that might stimulate the birth of new neurons, or protect newborn neurons from cell death, a library of 1,000 compounds was screened using an in vivo assay. In the initial screen, compounds were randomly pooled into groups often and administered intracerebroventricularly at a constant rate over seven days into the left lateral ventricle of living mice via Alzet osmotic mini-pumps. Compounds were administered at a concentration of 10 μM for each molecule, making a total solute concentration of 100 μM. After seven days of infusion at a constant rate of 0.5 μL/hour, a total of 84 μL of volume will have left the pump (0.00084 μMoles) and entered the cerebrospinal fluid. The average volume of a brain from a 12 week old male, C57/B6 mouse in our study is 500 mm^3. […] Under these conditions, at the end of one week of infusion each compound would be present at 1.7 μMolar concentration. Since the actual amount of chemical compound in the brain is likely to be only a fraction of this predicted level, it is reasonable to estimate that compounds were administered at mid to low-nanomolar concentrations.
During compound infusion, animals were intraperitoneally (IP) injected daily with the thymidine analog, bromodeoxyuridine (BrdU), as a means of scoring the birth and survival of proliferating neural precursor cells in the hippocampus. Because both social interaction and voluntary exercise are known to stimulate hippocampal neurogenesis, mice were housed individually without access to running wheels throughout the screening period. Following the week-long period of compound administration, animals were perfused and sacrificed. Dissected brain tissue was fixed, embedded, sectioned, stained with antibodies to BrdU, and evaluated by light microcopy as a means of quantifying neurogenesis and survival of newborn neural precursor cells localized to the subgranular layer of the dentate gyrus on the brain hemisphere contralateral to the side of mini-pump cannulation. Every fifth section throughout the entire rostral-caudal extent of the hippocampus was analyzed, and the total number of BrdU+ cells was normalized against the measured volume of the dentate gyrus. Because both increased proliferation and survival of newborn neurons are important screening parameters, the screen was conducted over seven days in order to cast a wide net to detect molecules that might augment either process. […] Intracranial infusions of either fibroblast growth factor 2 (FGF-2) or artificial cerebral spinal fluid (aCSF) vehicle via the same, week-long protocol were employed as positive and negative controls. There was no difference in the number of BrdU-labeled cells in the dentate gyrus between mice subjected to surgical pump implantation and infusion with vehicle, and mice having had no surgery (FIG. 2). This confirmed the validity of the in vivo approach to assess the ability of intracerebroventricularly infused compounds to enhance hippocampal neurogenesis in the contralateral hemisphere.
In order to further study Example 45 Compound, an in vivo structure activity relationship (SAR) study was conducted using 37 chemical derivatives of the compound for pro-neurogenic activity via direct administration into the brain of adult mice via Alzet minipumps. Compounds were administered for one week at 10 uM into 4 mice per compound, along with daily IP injections of BrdU. Following compound administration, animals were perfused, sacrificed and subjected to sectioning, staining and light microscopy in order to monitor hippocampal neurogenesis localized to the subgranular layer of the dentate gyrus. Roughly 10% of the variant compounds retained pro-neurogenic activity indistinguishable from the parent compound. […]

SNc dopaminergic neurons = assay: MPTP-toxicity to SNc dopaminergic neurons, treatment started 24 hours after the last MPTP dose; type: in vivo, mouse (C57Bl/6); details: new analogs, 10 mice for each compound
Experimental: FIG. 29A and FIG. 29B. Neuroprotective efficacy of P7C3 and P7C3A20 from MPTP-toxicity to SNc dopaminergic neurons. FIG. 29A—Test compounds were evaluated by dose response assay for their ability to block MPTP-neurotoxicity in the SNc. […] VEH group contained 30 animals: 15 animals that received the P7C3A20/P7C3 vehicle, and 15 animals that received Dimebon vehicle (saline). […] Representative immunohistochemical pictures of TH-staining in the SNc are shown below the graph. Dosing is expressed as total mg/day, and was administered intraperitoneally in divided doses twice daily. Data are expressed as mean±SEM. […] P7C3A20 does so with greater effect, and Dimebon offers no protection. Striatal sections were obtained from the same mice used in FIG. 2, and compound treatment groups are from mice that received a dose of 20 mg/kg/d.
We compared the protective efficacy of our agents in the Tatton and Kish model of MPTP administration, which induces prolonged apoptotic death of SNc dopaminergic neurons lasting about 3 weeks after a short course of daily MPTP administration. Mice were treated daily for 5 days with 30 mg/kg/day free base MPTP. On the sixth day, 24 hours after receiving the fifth and final dose of MPTP, daily treatment with P7C3, P7C3A20, Dimebon or vehicle was initiated. […] Dose-response studies were conducted in which mice received twice daily doses of each compound (or vehicle) for the ensuing 21 days (FIG. 29A). […] At the end of the 21 day treatment period, mice were sacrificed by transcardial perfusion with 4% paraformaldehyde, and fixed brains were sectioned through the striatum and SNc at 30 μM intervals. Every fourth section (spaced 120 μM apart) was stained with antibodies specific to tyrosine hydroxylase (TH) (Abcam, rabbit anti-TH, 1:2500). The TH enzyme catalyzes the conversion of the amino acid L-tyrosine to L-3,4-dihydroxyphenylalanine (L-DOPA), which serves as the precursor for dopamine. TH staining thus provides a means to immunohistochemically identify dopaminergic neurons. By counting the number of TH+ cells in the SNc, we were able to assess the neuroprotective efficacy of the three chemicals following MPTP exposure. All microscopic analysis was performed by two investigators, blind to treatment group.
15 adult male C57Bl/6 mice were individually housed for one week and then injected daily for 5 days with 30 mg/kg/day (i.p.) free base MPTP (Sigma). On day 6, 24 hours after receiving the fifth and final dose of MPTP, daily treatment with P7C3, P7C3A20, Dimebon or vehicle was initiated. Mice were housed in disposable caging, and protective gear and precautions were implemented for handling MPTP in accordance with UT Southwestern Medical Center policy. Dose response studies were conducted in which mice received twice daily doses of each compound (or vehicle) by intraperitoneal injection for the following 21 days, after which mice were sacrificed by transcardial perfusion with 4% paraformaldehyde. Brains were dissected, fixed overnight in 4% paraformaldehyde, and cryoprotected in sucrose for freezing by standard procedures. Frozen brains were sectioned through the striatum and SNc at 30 uM intervals, and every fourth section (spaced 120 μM apart) was stained with antibodies directed against tyrosine hydroxylase (TH) (Abcam, rabbit anti-TH, 1:2500). Diaminobenzidine was used as a chromagen, and tissue was counter-stained with hematoxylin to aid in visualization of the neuroanatomy. Images were analyzed with a Nikon Eclipse 90i motorized research microscope with Plan Apo lenses coupled with Metamorph Image Acquisition software (Nikon). TH+ neurons were counted with Image J software (NIH) in every section by 2 blinded investigators and results were averaged and multiplied by the sectioning interval to determine the total number of TH+ neurons per SNc.

Compound | increase of DG neurogenesis (BrdU labeling) over vehicle [1] | pro-neurogenic activity in the in vivo hippocampal neurogenesis assay [2] | activity in the MPTP protection assay (SNc dopaminergic neurons) | also measured
CC(NC(C)(C)C)C(=O)c1cccc(Cl)c1 (stereo not shown) [bupropion] | about 49% |  |  | 
OC(CSc1ccccc1)Cn1c2ccc(Br)cc2c2cc(Br)ccc21 (stereo not shown) [Example P7C3-S7] |  | active in both | active in both | pro-neurogenic activity in the in vivo hippocampal neurogenesis assay ([2]; listed as P7C3S7): potency equal to or greater than P7C3 in both in vivo assays; activity in the MPTP protection assay (SNc dopaminergic neurons; listed as P7C3S7): potency equal to or greater than P7C3 in both in vivo assays
COc1cccc(NCC(O)Cn2c3ccc(Br)cc3c3cc(Br)ccc32)c1 (single isomer, unassigned; (-)) [(−) enantiomer of Example 62 Compound, 1-(3,6-Dibromo-9H-carbazol-9-yl)-3-(3-methoxyphenylamino)-propan-2-ol] |  | displayed diminished activity |  | 
COc1ccc(C(CN(C)C)C2(O)CCCCC2)cc1 (stereo not shown) [venlafaxine] | did not affect the magnitude of neurogenesis |  |  | 
O=C(O)Cn1c2ccc(Br)cc2c2cc(Br)ccc21 [Example P7C3-S165] |  | neuroprotection was observed in both assays | neuroprotection was observed in both assays | 
N[C@@H]1C[C@H]1c1ccccc1 (racemic) [tranylcypromine] | did not affect the magnitude of neurogenesis |  |  | 
CNCCC(Oc1ccc(C(F)(F)F)cc1)c1ccccc1 (stereo not shown) [fluoxetine] | did not affect the magnitude of neurogenesis |  |  | 
CN[C@H]1CC[C@@H](c2ccc(Cl)c(Cl)c2)c2ccccc21 [sertraline] | did not affect the magnitude of neurogenesis |  |  | 
COc1cccc(NCC(C)(O)Cn2c3ccc(Br)cc3c3cc(Br)ccc32)c1 (stereo not shown) [Example P7C3-S54] |  | retain neuroprotective activity in both assays | retain neuroprotective activity in both assays | 
COc1cccc(NCC(F)Cn2c3ccc(Br)cc3c3cc(Br)ccc32)c1 (single isomer, unassigned) [Example 144a, N-(3-(3,6-dibromo-9H-carbazol-9-yl)-2-fluoropropyl)-3-methoxyaniline] |  | more active than P7C3-S114 |  | 
Cc1cc(C)n(CC(O)Cn2c3ccc(Br)cc3c3cc(Br)ccc32)n1 (stereo not shown) [Example P7C3-S25] |  | active in both | active in both | 
COc1cccc(NCC(O)Cn2c3ccc(Br)cc3c3cc(Br)ccc32)c1 (single isomer, unassigned; (-)) [(−) (levorotatory) enantiomer of 1-(3,6-Dibromo-9H-carbazol-] |  | lower activity |  | 
Fc1ccc([C@@H]2CCNC[C@H]2COc2ccc3c(c2)OCO3)cc1 [paroxetine] | did not affect the magnitude of neurogenesis |  |  | 
COc1cccc(NCC(O)Cn2c3ccc(Br)cc3c3cc(Br)ccc32)c1 (single isomer, unassigned; (+)) [(+) (dextrorotatory) enantiomer of 1-(3,6-Dibromo-9H-carbazo] |  | higher activity |  | 
OC(COc1ccccc1)Cn1c2ccc(Br)cc2c2cc(Br)ccc21 (stereo not shown) [Example P7C3S40] |  | neuroprotective activity in both assays resides exclusively in the S enantiomer | neuroprotective activity in both assays resides exclusively in the S enantiomer | 
NNCCc1ccccc1 [phenelzine] | ~52% |  |  | 
COc1cccc(NCC(O)Cn2c3ccc(Br)cc3c3cc(Br)ccc32)c1 (stereo not shown) [Example 62 Compound, 1-(3,6-Dibromo-9H-carbazol-9-yl)-3-(3-methoxyphenylamino)-propan-2-ol] |  | activity comparable to Example 45 Compound; also recorded: retained robust activity |  | 
OC(CNc1ncccn1)Cn1c2ccc(Br)cc2c2cc(Br)ccc21 (stereo not shown) [Example P7C3-S8] |  | devoid of activity in both assays | devoid of activity in both assays | 
O[C@H](COc1ccccc1)Cn1c2ccc(Br)cc2c2cc(Br)ccc21 [Example P7C3S41] |  | neuroprotective activity in both assays resides exclusively in the S enantiomer; also recorded: potency equal to or greater than P7C3 in both in vivo assays | neuroprotective activity in both assays resides exclusively in the S enantiomer; also recorded: potency equal to or greater than P7C3 in both in vivo assays | 
